This is an account of results in paper PMC11668715 (AMB Express, 2024).

The subject of test [1] is MRSA ATCC 43,300. As to the kind of experiment: Checkerboard dilution assay. In kind it is cell-based, S. aureus. The arrangement: MICalone / MICcombined: unit not given beside the values. The note with it: for MICalone: drug alone, checkerboard; for MICalone / MICcombined: MRSA ATCC 43,300; for Fold change: MIC combined vs alone.
For test [2], the system named is MRSA ATCC 43,300. Nature of the test: Time-killing assay of the synergistical combinations. In kind it is cell-based, S. aureus. The note with it: 1/4×MIC of PVB and 1/4×MIC of the antibiotic.
In test [3] the test system is MRSA and S. epidermidis persister cells. As to the kind of experiment: Persister cells killing assay. Format: cell-based, S. aureus and S. epidermidis. The following applies: 64 µg/mL.
Setting [4] is: group 11: PVB combined with CAZ.
The mark [5] stands for this setting: group 13: PVB combined with CEZ.
[6] abbreviates: group 15: PVB combined with OXA.
[7] abbreviates: group 20: PVB combined with TOB.
The mark [8] stands for this setting: group 21: PVB combined with SPC.
Where [9] appears, read: group 12: PVB combined with AMP.
The mark [10] stands for this setting: group 14: PVB combined with CEF.
[11] abbreviates: group 18: PVB combined with GEN.
[12] abbreviates: group 16: PVB combined with CRO.
[13] abbreviates: group 17: PVB combined with AMK.
Setting [14] is: group 19: PVB combined with KANA.

As for `C[C@H]1COc2c(N3CCN(C)CC3)c(F)cc3c(=O)c(C(=O)O)cn1c23` [LEV, levofloxacin], the MICalone in the test with MRSA ATCC 43,300 [1] was found to be 0.125. Also, the FICI in the test with MRSA ATCC 43,300 [1] (group 5: PVB + LEV) turned out to be 2. For the same compound, in the test on MRSA ATCC 43,300 [1] (group 5: PVB combined with LEV), the Fold change is reported as 1 and the MICcombined came to 0.125.
As to `CC(C)(O/N=C(\C(=O)N[C@@H]1C(=O)N2C(C(=O)[O-])=C(C[n+]3ccccc3)CS[C@H]12)c1csc(N)n1)C(=O)O` [CAZ, ceftazidime], the MICalone in the test with MRSA ATCC 43,300 [1] is listed as 32. For the same compound, the FICI with MRSA ATCC 43,300 [1] (group 11: PVB + CAZ) is recorded as 0.75. In the test with MRSA ATCC 43,300 [1] (setting [4]), the Fold change was 0.25 and the MICcombined is 8.
For the compound `CN(C)[C@@H]1C(O)=C(C(N)=O)C(=O)[C@@]2(O)C(O)=C3C(=O)c4c(O)cccc4[C@@](C)(O)[C@H]3C[C@@H]12` [TET, tetracycline], the MICalone in the test with MRSA ATCC 43,300 [1] is on record as 2. Besides, the FICI in the test on MRSA ATCC 43,300 [1] (group 1: PVB + TET) turned out to be 3. Moreover, in the test with MRSA ATCC 43,300 [1] (group 1: PVB combined with TET), the Fold change worked out at 1 and the MICcombined was 2.
Consider `C[C@@H]1O[C@@H]1P(=O)(O)O` [FOS, fosfomycin], for which the MICalone in the test with MRSA ATCC 43,300 [1] stood at 32. Moreover, the FICI in the test on MRSA ATCC 43,300 [1] (group 7: PVB + FOS) is 2. For the same compound, in the test on MRSA ATCC 43,300 [1] (group 7: PVB combined with FOS), the Fold change is 1 and the MICcombined turned out to be 32.
As to `Cc1nnc(SCC2=C(C(=O)O)N3C(=O)[C@@H](NC(=O)Cn4cnnn4)[C@H]3SC2)s1` [CEZ, cefazolin], the MICalone in the test on MRSA ATCC 43,300 [1] is given as 16. In addition, in the test with MRSA ATCC 43,300 [1] (group 13: PVB + CEZ), the FICI is reported as 0.5625. For the same compound, in the test with MRSA ATCC 43,300 [1] (setting [5]), the Fold change worked out at 0.5 and the MICcombined was 8.
`Cc1onc(-c2ccccc2)c1C(=O)N[C@@H]1C(=O)N2[C@@H]1SC(C)(C)[C@@H]2C(=O)O` [OXA, oxacillin]: in the test on MRSA ATCC 43,300 [1], the MICalone stood at 16. In addition, in the test on MRSA ATCC 43,300 [1] (group 15: PVB + OXA), the FICI is on record as 0.25. In the test with MRSA ATCC 43,300 [1] (setting [6]), the Fold change is 0.125 and the MICcombined is 2. For the same compound, the “bactericidal activity of combination with PVB (time-killing)” value (from here on “bactericidal activity of combination”) in the test with MRSA ATCC 43,300 [2] is recorded as “synergistical bactericidal activity”.
penicillin: in the test on MRSA ATCC 43,300 [1] (group 10: PVB + P), the FICI worked out at 1.5 and the Outcome entry is “indifference (an indifference effect was defined as 1 < FICI ≤ 4)”.
Take `CC[C@H]1OC(=O)[C@H](C)[C@@H](O[C@H]2C[C@@](C)(OC)[C@@H](O)[C@H](C)O2)[C@H](C)[C@@H](O[C@@H]2O[C@H](C)C[C@H](N(C)C)[C@H]2O)[C@](C)(O)C[C@@H](C)C(=O)[C@H](C)[C@@H](O)[C@]1(C)O` [E, erythromycin]: the FICI in the test on MRSA ATCC 43,300 [1] (group 3: PVB + E) was found to be 2.
In the case of `NC[C@H]1O[C@H](O[C@H]2[C@H](O)[C@@H](O[C@H]3O[C@H](CO)[C@@H](O)[C@H](N)[C@H]3O)[C@H](N)C[C@@H]2N)[C@H](N)C[C@@H]1O` [TOB, tobramycin], the MICalone in the test on MRSA ATCC 43,300 [1] came out at 64. In addition, the FICI with MRSA ATCC 43,300 [1] (group 20: PVB + TOB) turned out to be 5. Also, in the test on MRSA ATCC 43,300 [1] (setting [7]), the Fold change came out at 4 and the MICcombined is 256.
Consider `CN[C@H](CC(C)C)C(=O)N[C@H]1C(=O)N[C@@H](CC(N)=O)C(=O)N[C@H]2C(=O)N[C@H]3C(=O)N[C@H](C(=O)N[C@H](C(=O)O)c4cc(O)cc(O)c4-c4cc3ccc4O)[C@H](O)c3ccc(c(Cl)c3)Oc3cc2cc(c3O[C@@H]2O[C@H](CO)[C@@H](O)[C@H](O)[C@H]2O[C@H]2C[C@](C)(N)[C@H](O)[C@H](C)O2)Oc2ccc(cc2Cl)[C@H]1O` [VAN, vancomycin], for which, in the test with MRSA ATCC 43,300 [1], the MICalone is listed as 1. Moreover, in the test with MRSA ATCC 43,300 [1] (group 9: PVB + VAN), the FICI turned out to be 2. Further, in the test with MRSA ATCC 43,300 [1] (group 9: PVB combined with VAN), the Fold change worked out at 1 and the MICcombined came to 1. The persister cells killing entry in test [3] is given as “resistant”.
For `CN[C@@H]1[C@H](O)[C@H](NC)[C@H]2O[C@@]3(O)C(=O)C[C@@H](C)O[C@H]3O[C@@H]2[C@H]1O` [SPC, spectinomycin], the MICalone in the test on MRSA ATCC 43,300 [1] was 128. The FICI in the test on MRSA ATCC 43,300 [1] (group 21: PVB + SPC) was determined as 2. Besides, in the test on MRSA ATCC 43,300 [1] (setting [8]), the Fold change is 1 and the MICcombined was determined as 128.
For the compound `CC(=O)NC[C@H]1CN(c2ccc(N3CCOCC3)c(F)c2)C(=O)O1` [LZD, linezolid], the MICalone in the test on MRSA ATCC 43,300 [1] was determined as 2. For the same compound, the FICI in the test with MRSA ATCC 43,300 [1] (group 8: PVB + LZD) is on record as 2. Also, in the test with MRSA ATCC 43,300 [1] (group 8: PVB combined with LZD), the Fold change was determined as 1 and the MICcombined was 2.
As to `CC1(C)S[C@@H]2[C@H](NC(=O)[C@H](N)c3ccccc3)C(=O)N2[C@H]1C(=O)O` [AMP, ampicillin], the MICalone in the test with MRSA ATCC 43,300 [1] came to 16. In addition, the FICI with MRSA ATCC 43,300 [1] (group 12: PVB + AMP) is listed as 0.5. In the test with MRSA ATCC 43,300 [1] (setting [9]), the Fold change was determined as 0.25 and the MICcombined amounted to 4. Besides, the “bactericidal activity of combination” value with MRSA ATCC 43,300 [2] is given as “synergistical bactericidal activity”.
`CCCCCCCCCC(=O)N[C@@H](Cc1c[nH]c2ccccc12)C(=O)N[C@H](CC(N)=O)C(=O)N[C@@H](CC(=O)O)C(=O)N[C@@H]1C(=O)NCC(=O)N[C@@H](CCCN)C(=O)N[C@@H](CC(=O)O)C(=O)N[C@H](C)C(=O)N[C@@H](CC(=O)O)C(=O)NCC(=O)N[C@H](CO)C(=O)N[C@@H]([C@H](C)CC(=O)O)C(=O)N[C@@H](CC(=O)c2ccccc2N)C(=O)O[C@@H]1C` [DAP, daptomycin]: the MICalone in the test with MRSA ATCC 43,300 [1] is reported as 0.25. Also, the FICI in the test with MRSA ATCC 43,300 [1] (group 6: PVB + DAP) was 1. Besides, in the test on MRSA ATCC 43,300 [1] (group 6: PVB combined with DAP), the Fold change came out at 0.5 and the MICcombined is listed as 0.125.
As to `C[C@H]1c2cccc(O)c2C(=O)C2=C(O)[C@]3(O)C(=O)C(C(N)=O)=C(O)[C@@H](N(C)C)[C@@H]3[C@@H](O)[C@@H]21` [DOX, doxycycline], the MICalone in the test on MRSA ATCC 43,300 [1] worked out at 0.25. Further, the FICI in the test on MRSA ATCC 43,300 [1] (group 2: PVB + DOX) was 2. In the test on MRSA ATCC 43,300 [1] (group 2: PVB combined with DOX), the Fold change came out at 1 and the MICcombined is 0.25.
Turning to `CO/N=C(\C(=O)N[C@@H]1C(=O)N2C(C(=O)O)=C(COC(C)=O)CS[C@H]12)c1csc(N)n1` [CEF, cefotaxime], in the test on MRSA ATCC 43,300 [1], the MICalone was found to be 2. Also, in the test with MRSA ATCC 43,300 [1] (setting [10]), the Fold change was 0.25 and the MICcombined worked out at 0.5. Also, the “bactericidal activity of combination” value in the test on MRSA ATCC 43,300 [2] was “synergistical bactericidal activity”.
For the compound gentamycin, the MICalone in the test on MRSA ATCC 43,300 [1] is reported as 16. Moreover, in the test on MRSA ATCC 43,300 [1] (group 18: PVB + GEN), the FICI stood at 2 and the Outcome entry is listed as “indifference (an indifference effect was defined as 1 < FICI ≤ 4)”. Further, in the test with MRSA ATCC 43,300 [1] (setting [11]), the Fold change amounted to 1 and the MICcombined is 16.
For `CC[C@H]1OC(=O)[C@H](C)[C@@H](O[C@H]2C[C@@](C)(OC)[C@@H](O)[C@H](C)O2)[C@H](C)[C@@H](O[C@@H]2O[C@H](C)C[C@H](N(C)C)[C@H]2O)[C@](C)(O)C[C@@H](C)CN(C)[C@H](C)[C@@H](O)[C@]1(C)O` [AZI, azithromycin], the MICalone in the test with MRSA ATCC 43,300 [1] is on record as above 256. Further, the FICI in the test on MRSA ATCC 43,300 [1] (group 4: PVB + AZI) came to 2. In addition, in the test with MRSA ATCC 43,300 [1] (group 4: PVB combined with AZI), the Fold change worked out at 1 and the MICcombined is above 256.
In the case of `CO/N=C(\C(=O)N[C@@H]1C(=O)N2C(C(=O)O)=C(CSc3nc(=O)c(=O)[nH]n3C)CS[C@H]12)c1csc(N)n1` [CRO, ceftriaxone], the MICalone in the test on MRSA ATCC 43,300 [1] was found to be 32. In the test on MRSA ATCC 43,300 [1] (group 16: PVB + CRO), the FICI is 0.5625. Besides, in the test on MRSA ATCC 43,300 [1] (setting [12]), the Fold change was determined as 0.0625 and the MICcombined is 2.
Regarding `NCC[C@H](O)C(=O)N[C@@H]1C[C@H](N)[C@@H](O[C@H]2O[C@H](CN)[C@@H](O)[C@H](O)[C@H]2O)[C@H](O)[C@H]1O[C@H]1O[C@H](CO)[C@@H](O)[C@H](N)[C@H]1O` [AMK, amikacin], the MICalone in the test with MRSA ATCC 43,300 [1] amounted to 64. In the test with MRSA ATCC 43,300 [1] (group 17: PVB + AMK), the FICI is given as above 2 and the Outcome entry is on record as “indifference/antagonism”. Moreover, in the test with MRSA ATCC 43,300 [1] (setting [13]), the Fold change is above 1 and the MICcombined is above 64.
With `NC[C@H]1O[C@H](O[C@H]2[C@H](O)[C@@H](O[C@H]3O[C@H](CO)[C@@H](O)[C@H](N)[C@H]3O)[C@H](N)C[C@@H]2N)[C@H](O)[C@@H](O)[C@@H]1O` [KANA, kanamycin], the MICalone in the test on MRSA ATCC 43,300 [1] is 256. Also, in the test with MRSA ATCC 43,300 [1] (group 19: PVB + KANA), the FICI was 4.5 and the Outcome result is given as “antagonism (an antagonism effect was defined as FICI > 4)”. Also, in the test with MRSA ATCC 43,300 [1] (setting [14]), the Fold change is on record as 4 and the MICcombined is listed as 1024.
